Measured values: patent publication US6120997A, “Nucleic acid binders having an hydroxyamine motif” (The Scripps Research Institute, priority 1998, dated 2000)
“Also recorded” adds a separate entry of the source. Read-outs that look alike come from different tables or passages of the source.

How the values were obtained:
[1] = target: RBE3-neg; test: SPR binding of aminoglycosides to RBE3-neg; conditions: 25 C; for Kd: pH 7.0, 10 mM HEPES, 150 mM NaCl, 0.1 mM EDTA, Scatchard slope; for Scatchard plot x-axis intercept (RBE3-neg): pH 7.0, 150 mM NaCl
Description: (§1) FIGS. 9A and 9B illustrate neomycin B binding to RBE3, RBE3-neg and wt-RRE-II. (A) Semilogarithmic plot. […] Conditions: pH 7.0, 10 mM HEPES, 150 mM NaCl, 0.1 mM EDTA, […].
(§2) FIGS. 10A and 10B illustrate paromomycin binding to RBE3, RBE3-neg and wt-RRE-II. (A) Semilogarithmic plot; the dashed line indicates the binding of neomycin B to wt-RRE-II for comparison (B) Scatchard plot. […] Conditions: pH 7.0, 10 mM HEPES, 150 mM NaCl, 0.1 mM EDTA, […].
(§3) Binding of the aminoglycoside to all three RNA oligonucleotides is observed starting in the low nanomolar concentration range and is non-saturable over the concentration range investigated. […] The high degree of non-specific binding is not surprising considering that aminoglycosides are highly charged polycations that tend to associate nonspecifically with the polyanionic phosphate backbone of RNA. […] Data points corresponding to 0.5 or more equivalents of neomycin B represent equilibrium values and can be analyzed with respect to stoichiometry and affinity of aminoglycoside binding. […] Both sequences bind one molecule of neomycin B with submicromolar affinity followed by weaker association with several additional equivalents of the antibiotic.
(§4) Samples were prepared by serial dilutions from stock solutions in RNase free microfuge tubes (Ambion) and were centrifuged at 14000 rpm for degassing. Buffers were filtered through sterile 0.2 &m nylon membranes (Nalgene) under vacuum, except for BIA certified HBS buffer (Pharmacia Biosensor AB) which was used as obtained. All procedures for binding studies were automated as methods using repetitive cycles of sample injection and regeneration. Typically, buffer was injected in the first two cycles to establish a stable baseline value. Samples were injected at a flowrate of 5-10 &L/min using either the KINJECT or the COINJECT command. All aminoglycoside and Rev27 samples were injected from autoclaved 7 mm plastic vials that were capped with pierceable plastic crimp caps. To minimize carry over, samples were injected in order of increasing concentration. The running buffer was identical to the injection buffer, except for the salt dependence study where a single running buffer was used for all injections. Expected values for the equilibrium response of one equivalent of analyte were calculated from the relative molecular weight of the analyte and the immobilized RNA ligand in each flowcells. These values were adjusted by multiplying with a factor of 0.8 or 0.57 for Rev27 or aminoglycosides respectively. These factors arise from the different molar refractive indices of RNA and the analyte and were determined from the Scatchard plot x-axis intercepts of the 1:1 binding isotherms for Rev27 and neomycin B.
(§5) Binding Studies with Aminoglycosides. […]

[2] = tested on: AS-wt; test: SPR binding of aminoglycosides to decoding region A-site model AS-wt; set-up: species or system E. coli; conditions: for RNA binding, affinity or specificity for AS-wt (in words): Example 4; for specificity for AS-wt over negative controls (in words): Example 5, HBS-buffer
Outline: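 Compounds were injected over biotinylated RNA immobilized on streptavidin SPR chips in HBS (150 mM NaCl, 10 mM HEPES pH 7.4, 3.4 mM EDTA) […]. KD was obtained by non-linear fitting of equilibrium binding isotherms; the KD(AS-U1495A)/KD(AS-wt) ratio defines specificity.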

[3] = target: RBE3; test: SPR binding of aminoglycosides to RBE3; set-up: species or system HIV-1; conditions: 25 C; for Kd: pH 7.0, 10 mM HEPES, 150 mM NaCl, 0.1 mM EDTA, Scatchard slope; for Scatchard plot x-axis intercept (RBE3): pH 7.0, 150 mM NaCl
Description: as §1, §2, §3, §4, §5

Q: Which results are given for NC[C@@H]1O[C@H](O[C@H]2[C@@H](O)[C@H](O[C@@H]3[C@@H](O)[C@H](N)C[C@H](N)[C@H]3O[C@H]3O[C@H](CO)[C@@H](O)[C@H](O)[C@H]3N)O[C@@H]2CO)[C@H](N)[C@@H](O)[C@@H]1O [Paromomycin]?
A: Kd ([1]; read-out: Kd (RBE3-neg), paromomycin): 3100 nM; Scatchard plot x-axis intercept (RBE3-neg) [1]: 1.05; RNA binding, affinity or specificity for AS-wt (in words) [2]: somewhat higher affinity but lower specificity; specificity for AS-wt over negative controls (in words) [2]: specific for AS-wt over the negative control RNAs; temperature dependence of binding to AS-wt (in words) ([2]; Neo16bd, AS-wt and RBE3): tighter at lower temperature; Kd ([3]; read-out: Kd (RBE3), paromomycin): 2800 nM; Scatchard plot x-axis intercept (RBE3) [3]: 1.04

Q: Which results are given for NC[C@@H]1O[C@H](O[C@H]2[C@@H](O)[C@H](O[C@@H]3[C@@H](O)[C@H](N)C[C@H](N)[C@H]3O[C@H]3O[C@H](CN)[C@@H](O)[C@H](O)[C@H]3N)O[C@@H]2CO)[C@H](N)[C@@H](O)[C@@H]1O [Neomycin B]?
A: Kd ([1]; read-out: Kd (RBE3-neg), neomycin B): 160 nM; Scatchard plot x-axis intercept (RBE3-neg) [1]: 0.98; RNA binding, affinity or specificity for AS-wt (in words) [2]: tightest binder; also recorded: further improvement of the overall affinity, without affecting specificity; specificity for AS-wt over negative controls (in words) [2]: specific for AS-wt over the negative control RNAs; Kd ([3]; read-out: Kd (RBE3), neomycin B): 210 nM; Scatchard plot x-axis intercept (RBE3) [3]: 1.01
